The values that follow come from patent US9718804B2, “GSK-3 inhibitors” (BRISTOL-MYERS SQUIBB COMPANY, priority 2013, dated 2017).

The target of one assay is GSK3α (Homo sapiens, UniProt P49840). Briefly: GSK3α kinase assay (Caliper LabChip, fluoresceinated peptide substrate). In kind it is biochemical. Summed up: (§1)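 RT, 20 h incubation; EDTA stop (35 mM). Microfluidic electrophoretic separation of product vs. substrate.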
Another assay relates to pTau. Briefly: pTau assay (no method described). Format: cell-based.
Another assay deals with GSK3β (Homo sapiens, UniProt P49841). Kind of assay: GSK3β kinase assay (Caliper LabChip, fluoresceinated peptide substrate). In kind it is biochemical. Particulars: first value of the cell; 250 pM enzyme, 20 uM ATP, 20 hours at room temperature; read-out: GSK3β/α (nM): GSK3β IC50. Summed up:
as §1

GSK3β, sequence (P49841 whole entry, species assumed): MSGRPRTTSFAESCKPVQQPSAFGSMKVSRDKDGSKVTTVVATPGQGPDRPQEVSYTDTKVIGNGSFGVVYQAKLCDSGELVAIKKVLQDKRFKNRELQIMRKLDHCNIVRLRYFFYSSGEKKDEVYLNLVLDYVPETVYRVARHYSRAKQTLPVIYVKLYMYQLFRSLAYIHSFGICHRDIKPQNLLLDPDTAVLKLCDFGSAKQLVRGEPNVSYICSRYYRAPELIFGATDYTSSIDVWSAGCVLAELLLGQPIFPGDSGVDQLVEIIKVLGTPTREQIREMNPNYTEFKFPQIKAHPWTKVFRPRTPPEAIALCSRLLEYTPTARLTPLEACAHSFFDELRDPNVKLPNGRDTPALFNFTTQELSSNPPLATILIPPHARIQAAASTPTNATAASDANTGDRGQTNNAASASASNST
GSK3α, sequence (P49840 whole entry, species assumed): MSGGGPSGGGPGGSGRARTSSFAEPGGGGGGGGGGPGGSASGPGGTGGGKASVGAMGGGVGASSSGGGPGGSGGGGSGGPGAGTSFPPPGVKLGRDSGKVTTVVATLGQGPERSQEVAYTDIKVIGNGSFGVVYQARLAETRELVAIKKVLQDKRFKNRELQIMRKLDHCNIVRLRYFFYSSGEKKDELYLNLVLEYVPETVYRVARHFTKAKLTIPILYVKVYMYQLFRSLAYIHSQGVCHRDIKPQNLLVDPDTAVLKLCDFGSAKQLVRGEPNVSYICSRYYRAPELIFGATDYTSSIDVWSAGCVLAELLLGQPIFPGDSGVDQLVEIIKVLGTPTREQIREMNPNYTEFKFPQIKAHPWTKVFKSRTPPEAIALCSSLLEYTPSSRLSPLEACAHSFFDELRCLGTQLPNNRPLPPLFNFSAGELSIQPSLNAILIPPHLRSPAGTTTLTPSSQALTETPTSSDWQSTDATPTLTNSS

Regarding `O=C(Nc1cnc(Cl)cc1C1(O)CCOCC1)c1ccnc(Nc2ccc(C(F)(F)F)cn2)c1` [Example 74, N-(6-Chloro-4-(4-hydroxytetrahydro-2H-pyran-4-yl)pyridin-3-yl)-2-((5-(trifluoromethyl)pyridin-2-yl)amino)isonicotinamide], the IC50 came out at 2.5 nM against GSK3α, 180 nM in the assay with pTau and 3.4 nM on GSK3β.
For the compound `CC(C)(C)COc1cc(F)ncc1NC(=O)c1ccnc(Nc2ccc(C(F)(F)F)cn2)c1` [Example 75, N-(6-Fluoro-4-(neopentyloxy)pyridin-3-yl)-2-((5-(trifluoromethyl)pyridin-2-yl)amino)isonicotinamide], the IC50 against GSK3α is 2.4 nM; in the assay on pTau, 830 nM; at GSK3β, 5.1 nM.
On the same counts, the results for `CC1(c2cc(Cl)ncc2NC(=O)c2ccnc(Nc3ccc(C(F)(F)F)cn3)c2)OCCO1` [Example 76, N-(6-Chloro-4-(2-methyl-1,3-dioxolan-2-yl)pyridin-3-yl)-2-((5-(trifluoromethyl)pyridin-2-yl)amino)isonicotinamide] are 0.2 nM, 13 nM and 0.32 nM.
Taken in the same sequence, the figures for `CC1(c2cc(Cl)ncc2NC(=O)c2ccnc(Nc3ccc(C(F)(F)F)cn3)c2)CCCO1` (stereo not drawn) [Example 77, N-(6-Chloro-4-(2-methyltetrahydrofuran-2-yl)pyridin-3-yl)-2-((5-(trifluoromethyl)pyridin-2-yl)amino)isonicotinamide] were 0.35 nM, 31 nM and 0.63 nM.
On the same counts, the results for `CC1OC(C)(c2cc(Cl)ncc2NC(=O)c2ccnc(Nc3ccc(C(F)(F)F)cn3)c2)OC1C` (stereo not drawn) [Example 78, N-(6-Chloro-4-(2,4,5-trimethyl-1,3-dioxolan-2-yl)pyridin-3-yl)-2-((5-(trifluoromethyl)pyridin-2-yl)amino)isonicotinamide] are 3.2 nM, 170 nM and 4.5 nM.
As for `CCC1(c2cc(Cl)ncc2NC(=O)c2ccnc(Nc3ccc(C(F)(F)F)cn3)c2)OCCO1` [Example 79, N-(6-Chloro-4-(2-ethyl-1,3-dioxolan-2-yl)pyridin-3-yl)-2-((5-(trifluoromethyl)pyridin-2-yl)amino)isonicotinamide], the IC50 against GSK3α was 0.17 nM; with pTau it was 33 nM; at GSK3β, 0.31 nM.
Taken in the same sequence, the figures for `O=C(Nc1cnc(F)cc1OCC(F)F)c1ccnc(Nc2ccc(C(F)(F)F)cn2)c1` [Example 80, N-(4-(2,2-Difluoroethoxy)-6-fluoropyridin-3-yl)-2-((5-(trifluoromethyl)pyridin-2-yl)amino)isonicotinamide] were 3.3 nM, 86 nM and 6.2 nM.
For the compound `CCC1(c2cc(Cl)ncc2NC(=O)c2ccnc(Nc3ccc(C(F)(F)F)cn3)c2)OC(C)C(C)O1` (stereo not drawn) [Example 81, N-(6-Chloro-4-(2-ethyl-4,5-dimethyl-1,3-dioxolan-2-yl)pyridin-3-yl)-2-((5-(trifluoromethyl)pyridin-2-yl)amino)isonicotinamide], the IC50 amounted to 4 nM against GSK3α, 1900 nM in the assay on pTau and 6.7 nM on GSK3β.
Take `CC1(c2cc(F)ncc2NC(=O)c2ccnc(Nc3ccc(C(F)(F)F)cn3)c2)OCCO1` [Example 82, N-(6-Fluoro-4-(2-methyl-1,3-dioxolan-2-yl)pyridin-3-yl)-2-((5-(trifluoromethyl)pyridin-2-yl)amino)isonicotinamide]: the IC50 amounted to 1.9 nM against GSK3α, 230 nM in the assay with pTau and 7.1 nM at GSK3β.
Taken in the same sequence, the figures for `CC(C)C1(c2cc(Cl)ncc2NC(=O)c2ccnc(Nc3ccc(C(F)(F)F)cn3)c2)OCCO1` [Example 83, N-(6-Chloro-4-(2-isopropyl-1,3-dioxolan-2-yl)pyridin-3-yl)-2-((5-(trifluoromethyl)pyridin-2-yl)amino)isonicotinamide] were 0.55 nM, 57 nM and 1.1 nM.
As for `CC1(c2cc(OCCO)ncc2NC(=O)c2ccnc(Nc3ccc(C(F)(F)F)cn3)c2)OCCO1` [Example 84, N-(6-(2-Hydroxyethoxy)-4-(2-methyl-1,3-dioxolan-2-yl)pyridin-3-yl)-2-((5-(trifluoromethyl)pyridin-2-yl)amino)isonicotinamide], the IC50 stood at 5 nM at GSK3α, 350 nM in the assay with pTau and 9.2 nM at GSK3β.
For the compound `CC[C@@]1(c2cc(Cl)ncc2NC(=O)c2ccnc(Nc3ccc(C(F)(F)F)cn3)c2)OC[C@@H](C(F)(F)F)O1` [Example 85, N-(6-Chloro-4-((2R,4S)-2-ethyl-4-(trifluoromethyl)-1,3-dioxolan-2-yl)pyridin-3-yl)-2-((5-(trifluoromethyl)pyridin-2-yl)amino)isonicotinamide], the IC50 against GSK3α came out at 35 nM; in the assay on pTau it was 5500 nM; on GSK3β, 64 nM.
Taken in the same sequence, the figures for `CC[C@@]1(c2cc(Cl)ncc2NC(=O)c2ccnc(Nc3ccc(C(F)(F)F)cn3)c2)OC[C@H](C(F)(F)F)O1` [Example 86, N-(6-Chloro-4-((2R,4R)-2-ethyl-4-(trifluoromethyl)-1,3-dioxolan-2-yl)pyridin-3-yl)-2-((5-(trifluoromethyl)pyridin-2-yl)amino)isonicotinamide] were 2.4 nM, 510 nM and 12 nM.
On to `O=C(Nc1cnc(Cl)cc1C1(C2CC2)OCCO1)c1ccnc(Nc2ccc(C(F)(F)F)cn2)c1` [Example 87, N-(6-Chloro-4-(2-cyclopropyl-1,3-dioxolan-2-yl)pyridin-3-yl)-2-((5-(trifluoromethyl)pyridin-2-yl)amino)isonicotinamide], for which the IC50 is 0.17 nM against GSK3α, 6.6 nM in the assay with pTau and 0.04 nM at GSK3β.
For `CCCC1(c2cc(Cl)ncc2NC(=O)c2ccnc(Nc3ccc(C(F)(F)F)cn3)c2)OCCO1` [Example 88, N-(6-Chloro-4-(2-propyl-1,3-dioxolan-2-yl)pyridin-3-yl)-2-((5-(trifluoromethyl)pyridin-2-yl)amino)isonicotinamide], the figures for the IC50 on GSK3α, with pTau and at GSK3β were 0.23 nM, 80 nM and 0.69 nM, respectively.
On to `CC[C@@]1(c2cc(Cl)ncc2NC(=O)c2ccnc(Nc3ccc(C(F)(F)F)cn3)c2)OC[C@H](C)O1` [Example 89, N-(6-Chloro-4-((2R,4S)-2-ethyl-4-methyl-1,3-dioxolan-2-yl)pyridin-3-yl)-2-((5-(trifluoromethyl)pyridin-2-yl)amino)isonicotinamide], for which the IC50 against GSK3α turned out to be 1.7 nM; with pTau, 340 nM; on GSK3β it was 1.6 nM.
Taken in the same sequence, the figures for `CC[C@@]1(c2cc(Cl)ncc2NC(=O)c2ccnc(Nc3ccc(C(F)(F)F)cn3)c2)OC[C@@H](C)O1` [Example 90, N-(6-Chloro-4-((2R,4R)-2-ethyl-4-methyl-1,3-dioxolan-2-yl)pyridin-3-yl)-2-((5-(trifluoromethyl)pyridin-2-yl)amino)isonicotinamide] were 0.94 nM, 150 nM and 2 nM.
On the same counts, the results for `COc1cc(C2(C)OCCO2)c(NC(=O)c2ccnc(Nc3ccc(C(F)(F)F)cn3)c2)cn1` [Example 91, N-(6-Methoxy-4-(2-methyl-1,3-dioxolan-2-yl)pyridin-3-yl)-2-((5-(trifluoromethyl)pyridin-2-yl)amino)isonicotinamide] are 20 nM, 1200 nM and 3.9 nM.
